In patent publication US20020164663A1, “Methods and compositions for detection, diagnosis and prediction of antiestrogen-resistant breast cancer” (BOARD OF REGENTS, THE UNIVERSITY OF TEXAS SYSTEM, priority 1998, published 2002):

Legend:
bFGFR = experiment: cDNA expression array of MCF-7 tumors (estrogen-stimulated, tamoxifen-sensitive, tamoxifen-resistant); assay type: in vivo, human; settings: breast cancers treated with tamoxifen in comparison with estrogen-stimulated breast cancer; FIG. 6
Experimental: (§1) MCF-7 tumors were inoculated into the mammary fat pads of athymic nude mice supplemented with an estrogen pellet as described previously (Osborne et al., 1985) until tumors arose. The estrogen pellets were removed and the animals were treated with tamoxifen. […] Invariably, however, after initial growth suppression, the tumors became resistant and growth resumed. Animals were sacrificed at various times to obtain cells from estrogen-stimulated (ES) tumors prior to tamoxifen treatment, from tamoxifen-sensitive (TS) tumors during tamoxifen treatment but prior to acquired resistance, and from tamoxifen-resistant (TR) tumors after tumor growth had resumed.
(§2) RNA was prepared from these tumors (n=5 tumors per group) using RNeasy kits (Qiagen Inc., Valencia, Calif.), and mRNA was isolated on Dynabeads (Dyne, Oslo, Norway) according to manufacturer's instructions. […]
(§3) The controls, which were more difficult to quantitate reliably, were not included in the statistical analyses. […]
(§4) Principal Components Analysis (PCA) of mean-centered log-transformed data, based on the variance-covariance matrix (Tatsuoka, 1971), was then used to standardize across the three hybridizations and to extract three new axes (components P1, P2, and P3), expressed as linear combinations of the original axes (ES, TS, and TR). […]

VEGF = experiment: as above; assay type: in vivo, human; settings: breast cancers treated with tamoxifen in comparison with estrogen-stimulated breast cancer; FIG. 6
Experimental: as §1, §2, §3, §4

MCF-7 tumors = MCF-7 tumors in mammary fat pads of athymic nude mice, tamoxifen treatment after removal of estrogen pellet; assay type: in vivo; settings: athymic nude mice with MCF-7 tumors; estrogen pellets removed, treated with tamoxifen; later tumors became resistant and growth resumed
Experimental: as §1

**Q.** With CC/C(=C(\c1ccccc1)c1ccc(OCCN(C)C)cc1)c1ccccc1 [tamoxifen] as the molecule, how does the bFGFR expression (bFGFR) read?
**A.** The bFGFR expression was “decreased expression”.

**Q.** What about the VEGF expression (VEGF) of the same molecule?
**A.** The VEGF expression was “decreased expression”.

**Q.** What about the Tumor volumes (MCF-7 tumors) of the same molecule?
**A.** Its Tumor volumes is “declined and remained stable for several months”.
